Measured values: US20080226719A1, “Combination of Rosiglitazone and Donepezil for Improvement of Cognitive Function” (priority 2005, published 2008)

Assays:
Alzheimer's patients [1] = experiment: ADAS-cog in patients with mild to moderate AD, 24 week placebo-controlled study (Example 2); type: in vivo, human; conditions: for ADAS-cog Treatment Difference (95% confidence limits) Rosi − Placebo / ADAS-cog model adjusted change from baseline, LSMean (SE): ITT population, LOCF; for ADAS-cog Treatment Difference (95% confidence limits) Rosi − Placebo / ADAS-cog model adjusted change from baseline, LSMean (SE) / ADAS-cog Treatment Difference (90% confidence limits) Rosi − Placebo / ADAS-cog model-adjusted change from baseline, LSMean (SE): 24 weeks; for ADAS-cog Treatment Difference (90% confidence limits) Rosi − Placebo / ADAS-cog model-adjusted change from baseline, LSMean (SE): PGx ITT population
Experimental: (§1) Analysis for the full intent to treat (ITT) population was performed on 511 subjects who were randomly allocated into one of four specific treatment regimes. Genotyping analysis was performed on 63% (323/511) of the ITT population.
(§2) Patient population included Caucasian males and females between 50-85 years of age who had been diagnosed with mild to moderate AD, were not receiving any medications which could adversely prejudice the study (e.g. PPAR-gamma agonists or conventional AD medicaments) or had any other potentially prejudicial ailments (e.g. diabetes or major psychiatric disorders).
(§3) Patients received either placebo or one of three dosage levels of extended release rosiglitazone provided once daily (2 mg, 4 mg and 8 mg tablets as described in Example 1). Patients were examined using the cognitive Alzheimer's Disease Assessment Scale (ADAS-cog; for further information see Rosen W G et al. Am. J. Psychiatry. 1984 141:1356-1364) and the Clinician's Interview-Based Impression of Change with caregiver information (CIBIC+; for further information see Knopman D S et al. Neurology 1994 44: 2315-2321); and secondary assessments were performed using: the Disability Assessment for Dementia (DAD, for further information see Gelinas L et al. Am J Occup Ther 1999 53: 471-81) and the Neuropsychiatric Inventory test (NPI, for further information see Cummings et al (1994) Neurology 44, 2308-2314) at the start of the study (baseline) and during the course of the study (after 8, 16 and 24 weeks of treatment).
(§4) APOE genotype was determined using the TaqMan PCR-based method of McLeod et al 2001 infra.
(§5) All statistics reflect last observed assessment carried forward (LOCF) measurements.
It should be noted that in the case of ADAS-cog higher scores indicate reduced cognitive function.

Alzheimer's patients [2] = experiment: CIBIC+ in patients with mild to moderate AD, 24 week placebo-controlled study (Example 2); type: in vivo, human; conditions: 24 weeks; for CIBIC+ LSMean (SE) / CIBIC+ Treatment Difference (95% confidence limits) Rosi − Placebo: ITT population, LOCF
Experimental: as §1, §2, §3, §4, §5
Higher CIBIC+ scores indicate a greater level of decline with scores below 4 denoting clinical improvement and scores above 4 denoting clinical decline.

For `CN(CCOc1ccc(CC2SC(=O)NC2=O)cc1)c1ccccn1` (stereo not drawn) [Rosi, 5-[4-[2-(N-methyl-N-(2-pyridyl)amino)ethoxy]benzyl]thiazolidine-2,4-dione], which “ADAS-cog change from baseline, cognitive function (FIG. 2)” value (“ADAS-cog change from baseline … (FIG. 2)” for short) (Alzheimer's patients [1]; APOE4+ individuals, 2 mg, 4 mg or 8 mg, after 8 weeks) is on record?
The value was “slight improvement”.

And the “ADAS-cog change from baseline … (FIG. 2)” value (Alzheimer's patients [1]; APOE4+ individuals, 2 mg, after 16 weeks)?
Its value is “a greater decline than the placebo”.

And the “ADAS-cog change from baseline … (FIG. 2)” value (Alzheimer's patients [1]; APOE4+ individuals, 4 mg and 8 mg, after 16 weeks, versus placebo)?
Its value is “the same or better clinical status”.

And the “ADAS-cog change from baseline … (FIG. 2)” value (Alzheimer's patients [1]; APOE4+ individuals, all three treatment arms, after 24 weeks)?
Its value is “finish with a clinical decline”.

What about the “ADAS-cog change from baseline (FIG. 3)” value (Alzheimer's patients [1]; APOE4 heterozygotes, higher doses (4, 8 mg), course of the study) of the same compound?
The value was “remained close to the baseline”.

What about the “ADAS-cog change from baseline (FIG. 3)” value (Alzheimer's patients [1]; APOE4 homozygotes, all treated) of the same compound?
Its value is “experienced a clinical decline”.

What about the “ADAS-cog change from baseline … (FIG. 2)” value (Alzheimer's patients [1]; APOE4− individuals, 2 mg, 4 mg or 8 mg, all time points (8, 16 and 24 weeks)) of the same compound?
The value was “marked improvement”.

And the “ADAS-cog Treatment Difference (95% confidence limits) Rosi − Placebo” value (Alzheimer's patients [1]; 2 mg)?
Its value is 0.25 (−1.19, 1.68).

And the “ADAS-cog model adjusted change from baseline, LSMean (SE)” value (shortened to “ADAS-cog model adjusted change … (SE)”) (Alzheimer's patients [1]; 2 mg once daily extended release)?
The value was −0.2 (0.54).

What about the “ADAS-cog Treatment Difference (95% confidence limits) Rosi − Placebo” value (Alzheimer's patients [1]; 4 mg) of the same compound?
The value was −0.46 (−1.90, 0.97).

What about the “ADAS-cog model adjusted change … (SE)” value (Alzheimer's patients [1]; 4 mg once daily extended release) of the same compound?
The value was −0.9 (0.54).

And the “ADAS-cog Treatment Difference (95% confidence limits) Rosi − Placebo” value (Alzheimer's patients [1]; 8 mg)?
The value was −0.27 (−1.70, 1.16).

And the “ADAS-cog model adjusted change … (SE)” value (Alzheimer's patients [1]; 8 mg once daily extended release)?
Its value is −0.7 (0.53).

And the “ADAS-cog Treatment Difference (90% confidence limits) Rosi − Placebo” value (Alzheimer's patients [1]; 0 APOE4 copies, 2 mg)?
Its value is −2.39 (−4.43, −0.36).

And the “ADAS-cog model-adjusted change from baseline, LSMean (SE)” value (shortened to “ADAS-cog model-adjusted change … (SE)”) (Alzheimer's patients [1]; 0 APOE4 copies, 2 mg)?
Its value is −1.38 (0.90).

And the “ADAS-cog Treatment Difference (90% confidence limits) Rosi − Placebo” value (Alzheimer's patients [1]; 0 APOE4 copies, 4 mg)?
The value was −2.26 (−4.32, −0.20).

What about the “ADAS-cog model-adjusted change … (SE)” value (Alzheimer's patients [1]; 0 APOE4 copies, 4 mg) of the same compound?
Its value is −1.25 (0.90).

What about the “ADAS-cog Treatment Difference (90% confidence limits) Rosi − Placebo” value (Alzheimer's patients [1]; 0 APOE4 copies, 8 mg) of the same compound?
Its value is −2.86 (−4.98, −0.74).

What about the “ADAS-cog model-adjusted change … (SE)” value (Alzheimer's patients [1]; 0 APOE4 copies, 8 mg) of the same compound?
Its value is −1.85 (0.94).

What about the “ADAS-cog Treatment Difference (90% confidence limits) Rosi − Placebo” value (Alzheimer's patients [1]; 0 APOE4 copies, 8 mg, listed as rosiglitazone) of the same compound?
The value was −2.86.

What about the “ADAS-cog Treatment Difference (90% confidence limits) Rosi − Placebo” value (Alzheimer's patients [1]; 1 APOE4 copy, 2 mg) of the same compound?
The value was 2.59 (0.10, 5.08).

And the “ADAS-cog model-adjusted change … (SE)” value (Alzheimer's patients [1]; 1 APOE4 copy, 2 mg)?
The value was 2.02 (1.10).

What about the “ADAS-cog Treatment Difference (90% confidence limits) Rosi − Placebo” value (Alzheimer's patients [1]; 1 APOE4 copy, 4 mg) of the same compound?
Its value is 0.36 (−2.18, 2.90).

And the “ADAS-cog model-adjusted change … (SE)” value (Alzheimer's patients [1]; 1 APOE4 copy, 4 mg)?
The value was −0.21 (1.15).

And the “ADAS-cog Treatment Difference (90% confidence limits) Rosi − Placebo” value (Alzheimer's patients [1]; 1 APOE4 copy, 8 mg)?
The value was 0.23 (−2.42, 2.87).

What about the “ADAS-cog model-adjusted change … (SE)” value (Alzheimer's patients [1]; 1 APOE4 copy, 8 mg) of the same compound?
Its value is −0.34 (1.25).

What about the “ADAS-cog Treatment Difference (90% confidence limits) Rosi − Placebo” value (Alzheimer's patients [1]; 2 APOE4 copies, 2 mg) of the same compound?
The value was 10.26 (3.64, 16.87).

What about the “ADAS-cog model-adjusted change … (SE)” value (Alzheimer's patients [1]; 2 APOE4 copies, 2 mg) of the same compound?
Its value is 5.67 (2.98).

What about the “ADAS-cog Treatment Difference (90% confidence limits) Rosi − Placebo” value (Alzheimer's patients [1]; 2 APOE4 copies, 4 mg) of the same compound?
Its value is 7.75 (1.79, 13.71).

And the “ADAS-cog model-adjusted change … (SE)” value (Alzheimer's patients [1]; 2 APOE4 copies, 4 mg)?
The value was 3.16 (2.44).

What about the “ADAS-cog Treatment Difference (90% confidence limits) Rosi − Placebo” value (Alzheimer's patients [1]; 2 APOE4 copies, 8 mg) of the same compound?
The value was 6.50 (1.28, 11.71).

What about the “ADAS-cog model-adjusted change … (SE)” value (Alzheimer's patients [1]; 2 APOE4 copies, 8 mg) of the same compound?
The value was 1.91 (1.73).

What about the “CIBIC+ LSMean (SE)” value (Alzheimer's patients [2]; 2 mg) of the same compound?
The value was 3.8 (0.10).

And the “CIBIC+ Treatment Difference (95% confidence limits) Rosi − Placebo” value (Alzheimer's patients [2]; 2 mg)?
The value was −0.16 (−0.44, 0.11).

What about the “CIBIC+ LSMean (SE)” value (Alzheimer's patients [2]; 4 mg) of the same compound?
Its value is 3.8 (0.10).

What about the “CIBIC+ Treatment Difference (95% confidence limits) Rosi − Placebo” value (Alzheimer's patients [2]; 4 mg) of the same compound?
Its value is −0.16 (−0.43, 0.11).

And the “CIBIC+ LSMean (SE)” value (Alzheimer's patients [2]; 8 mg)?
Its value is 3.8 (0.10).

And the “CIBIC+ Treatment Difference (95% confidence limits) Rosi − Placebo” value (Alzheimer's patients [2]; 8 mg)?
The value was −0.22 (−0.49, 0.05).

What about the “CIBIC+ Treatment Difference (90% confidence limits) Rosi − Placebo” value (Alzheimer's patients [2]; Table 13, PGx ITT population, 0 APOE4 copies, 2 mg) of the same compound?
Its value is −0.49 (−0.89, −0.08).
